Read-outs that look alike come from different tables or passages of the source.
How the values were obtained:
Assay type in all cases: cell-based, mice
tyrosinase [1] = assay: Expression inhibition I of a melanin synthesis enzyme in melanocyte (tyrosinase band in gel); details: for Intensity of tyrosinase band: 100 □/□, 3 days culture, lower intensity = higher inhibition of tyrosinase biosynthesis, controls 123 (Control Exp 1) and 211 (Control Exp 2); for Inhibiting effect on biosynthesis of tyrosinase (in words): compared to Control Example 2 containing only a melanocyte stimulating hormone
Method: (§1) α-MSH, for an experiment for melanin synthesis inhibition, was dissolved in 10% DMSO (Dimethyl sulfoxide), and was used as 1 mM solution. B-16 melanoma (ATCC CRL 6323) cell line (derived from mice) was inoculated into a DMEM medium including 4.5 g/L of glucose, 10% serum, and 1% antibiotics, and was subcultured in 75[…] T-flask under 5% CO2 and at 37° C. The subcultured melanoma cell line was cultured in 75[…] T-flask for 24 hours, and was treated with 0.05% Trypsin containing 0.02% EDTA. Then, cells were separated, were inoculated in 75[…] T-flask, and were further cultured for 6 hours. Herein, the number of cells was 1×10^7 cells/flask. Then, a melanocyte-stimulating hormone was diluted in a DMEM medium to a final concentration 100[…]. Next, each of arctiin, arctigenin, matairesinol, oleanolic acid, betulinic acid, rutin, and ursolic acid was diluted in the DMEM medium to a final concentration of 10-1000 □/□ to carry out treatment of melanoma cells, and then, the cells were further cultured at 37° C. for 5 days. Next, the medium was obtained to measure absorbance at 475 nm, and through comparison of melanin synthesis, IC50 (□/□), that is, the density for inhibiting melanin synthesis by 50%, was calculated.
An experiment was carried out in the same manner as described in Experimental Example 1 except that each of arctiin, arctigenin, matairesinol, oleanolic acid, betulinic acid, rutin, and ursolic acid was added, and culture was further carried out for 3 days to obtain cells. Also, in order to compare the expression inhibition of a melanin synthesis enzyme, experiments on Control Example 1 containing no forsythia suspensa active substance and Control Example 2 containing a melanocyte stimulating hormone were carried out. Obtained cells were washed with sodium phosphate buffer two times, were treated with 0.1% triton X-100, and were reacted by a sonicator for 30 seconds. From the reaction solution, cell precipitate and supernatant were separated by using a high-speed centrifuge at 12,000 rpm for 30 minutes at 4° C. From the separated supernatant, protein was separated by using electrophoresis, and was reacted in a reaction solution containing 0.2% DOPA solution for about 8 hours. Then, the production of tyrosinase in gel was measured.

[2] = system: NIH/3T3 (ATCC CRL 1658) cell line; assay: Cytotoxicity on fibroblast cell (MTT); details: for Cell viability (%): 12 hours, MTT
Method: On a fibroblast cell, toxicity of arctiin, arctigenin, a 1:3 mixture of arctiin and arctigenin, and a 3:1 mixture of arctiin and arctigenin prepared by Preparation Examples 1 and 2 was measured, respectively. NIH/3T3 (ATCC CRL 1658) cell line (derived from mice) as a fibroblast cell, which was purchased, was inoculated into a DMEM medium including 4.5 g/L of glucose, 10% serum, and 1% antibiotics, and was subcultured in 75[…] T-flask at 37° C. The subcultured cell line was cultured under 5% CO2 for 24 hours, and then it was treated with 0.05% Trypsin containing 0.02% EDTA. Then, cells were separated, were inoculated into 96-well-flask (1×10^4 cells/well) and stabilized through culture for 6 hours. To the cells, each of arctiin, arctigenin, a 1:3 mixture of arctiin and arctigenin, and a 3:1 mixture of arctiin and arctigenin was added as noted in Table 5, and culture was further carried out for 12 hours. After the culture, 10[…] of MTT (3-(4,5-dimethylthiazol-2-yl) 2,5-diphenyl tetrazolin bromide) solution (5[…]/□) was added in each well, and culture was carried out for 4 hours. Then, 100[…] of DMSO (Dimethyl sulfoxide) solution was added, and absorbance was measured at O.D. 570 nm to calculate the cell viability. […] Herein, the cell viability of 100% was based on the absorbance in the case of no additional substance.

[3] = system: B-16 melanoma (ATCC CRL 6323) cell line; assay: Melanin synthesis inhibition by forsythia suspensa active substances (IC50); details: for Melanin synthesis inhibition (in words): compared to other substances of Forsythia suspensa; for IC50: Mus musculus, B16, 120 h, read-out: Melanin synthesis inhibition IC50
Method: as §1

tyrosinase [4] = assay: Expression inhibition II of a melanin synthesis enzyme from melanocyte (tyrosinase band in gel); details: 100 □/□ substance with melanocyte stimulating hormone 100; 3 days culture; controls 123 and 211
Method: The subcultured melanoma cell line was cultured in 75[…] T-flask for 24 hours, and was treated with 0.05% Trypsin containing 0.02% EDTA. Then, cells were separated, were inoculated in 75[…] T-flask, and were further cultured for 6 hours. Herein, the number of cells was 1×10^7 cells/flask. Then, a melanocyte-stimulating hormone was diluted in a DMEM medium to a final concentration 100[…]. Next, each of arctiin, arctigenin, matairesinol, oleanolic acid, betulinic acid, rutin, and ursolic acid was diluted in the DMEM medium to a final concentration of 10-1000 □/□ to carry out treatment of melanoma cells, and then, the cells were further cultured at 37° C. for 5 days. […] An expression inhibiting effect of a melanin synthesis enzyme from melanocyte, which can be achieved by arctiin, arctigenin, or the mixture thereof, was determined. An experiment was carried out in the same manner as described in Experimental Example 1 except that each of arctiin, arctigenin, a 1:3 mixture of arctiin and arctigenin, and a 3:1 mixture of arctiin and arctigenin prepared by Preparation Examples 1 and 2 was added and culture was further carried out for 3 days to obtain cells. […] And then, the production of tyrosinase was measured in electrophoresis gel.

[5] = system: B-16 melanoma (ATCC CRL 6323) cell line; assay: Melanin synthesis inhibition (%) by arctiin, arctigenin and the mixture thereof; details: n = 3, 5 days
Method: The subcultured melanoma cell line was cultured in 75[…] T-flask for 24 hours, and was treated with 0.05% Trypsin containing 0.02% EDTA. Then, cells were separated, were inoculated in 75[…] T-flask, and were further cultured for 6 hours. Herein, the number of cells was 1×10^7 cells/flask. Then, a melanocyte-stimulating hormone was diluted in a DMEM medium to a final concentration 100[…]. Next, each of arctiin, arctigenin, matairesinol, oleanolic acid, betulinic acid, rutin, and ursolic acid was diluted in the DMEM medium to a final concentration of 10-1000 □/□ to carry out treatment of melanoma cells, and then, the cells were further cultured at 37° C. for 5 days. […] An experiment of melanin synthesis inhibition was carried out in the same manner as described in EXPERIMENTAL EXAMPLE 1, except the following processes. […] Next, the medium was obtained to measure absorbance at 475 nm, and melanin synthesis was compared. A melanin synthesis inhibition (%) was calculated according to Mathematical Formula 1, with a control value of cell cultures including only a melanocyte stimulating hormone. […] [formula]

[6] = α-MSH-stimulated B-16 melanoma, 5 days, medium absorbance at 475 nm

COc1cc(CC2C(=O)OCC2Cc2ccc(OC)c(OC)c2)ccc1O (stereo not shown) [Arctigenin, 4-[(3,4-Dimethoxyphenyl)methyl]dihydro-3-[(4-hydroxy-3-metoxyphenyl)methyl]-2(3H)-furanone]
Intensity of tyrosinase band (tyrosinase [1]): 135
Inhibiting effect on biosynthesis of tyrosinase (in words) (tyrosinase [1]): significantly high inhibiting effects
Toxicity determination on cells ([2]; criteria of Table 6): non-toxic
Cell viability (%) ([2]; final concentration 20 □/□): 101.2%
Cell viability (%) ([2]; final concentration 60 □/□): 101.0%
Cell viability (%) ([2]; final concentration 100 □/□): 99.8%
Cell viability (%) ([2]; final concentration 140 □/□): 99.6%
Cell viability (%) ([2]; final concentration 180 □/□): 99.7%
Melanin synthesis inhibition (in words) [3]: most effective
Strength of tyrosinase band (tyrosinase [4]): 135
Melanin synthesis inhibition (%) ([5]; final concentration 60 □/□): 66.8%
Melanin synthesis inhibition (%) ([5]; final concentration 100 □/□): 79.6%
Melanin synthesis inhibition (%) ([5]; final concentration 140 □/□): 81.3%
Melanin synthesis inhibition (%) ([5]; final concentration 180 □/□): 84.3%

COc1ccc(CC2COC(=O)C2Cc2ccc(O[C@@H]3O[C@H](CO)[C@@H](O)[C@H](O)[C@H]3O)c(OC)c2)cc1OC (stereo partly shown) [Arctiin, 4-[(3,4-Dimethoxyphenyl)methyl]dihydro-3-[(4-Glucose-3-metoxyphenyl)methyl]-2(3H)-furanone]
Intensity of tyrosinase band (tyrosinase [1]): 155
Inhibiting effect on biosynthesis of tyrosinase (in words) (tyrosinase [1]): significantly high inhibiting effects
Cell viabilities (range over tested concentrations) [2]: 94-100%
Toxicity determination on cells [2]: non-toxic
Melanin synthesis inhibition (in words) [3]: most effective
Strength of tyrosinase band (tyrosinase [4]): 155
Melanin synthesis inhibition (%) ([5]; final concentration 60 □/□): 67.3%
Melanin synthesis inhibition (%) ([5]; final concentration 100 □/□): 78.5%
Melanin synthesis inhibition (%) ([5]; final concentration 140 □/□): 80.3%
Melanin synthesis inhibition (%) ([5]; final concentration 180 □/□): 84.2%

C=C(C)[C@@H]1CC[C@]2(C(=O)O)CC[C@]3(C)[C@H](CC[C@@H]4[C@@]5(C)CC[C@H](O)C(C)(C)[C@@H]5CC[C@]43C)[C@@H]12 [Betulinic acid]
Intensity of tyrosinase band (tyrosinase [1]): 170
IC50 [3, 6]: < 500 µg/mL

COc1cc(C[C@H]2COC(=O)[C@@H]2Cc2ccc(O)c(OC)c2)ccc1O [Matairesinol]
Intensity of tyrosinase band (tyrosinase [1]): 180
IC50 [3, 6]: < 200 µg/mL

CC1(C)CC[C@]2(C(=O)O)CC[C@]3(C)C(=CC[C@@H]4[C@@]5(C)CC[C@H](O)C(C)(C)[C@@H]5CC[C@]43C)[C@@H]2C1 [Oleanolic acid]
Intensity of tyrosinase band (tyrosinase [1]): 200
IC50 [3, 6]: < 1000 µg/mL

C[C@@H]1O[C@@H](OC[C@H]2O[C@@H](Oc3c(-c4ccc(O)c(O)c4)oc4cc(O)cc(O)c4c3=O)[C@H](O)[C@@H](O)[C@@H]2O)[C@H](O)[C@H](O)[C@H]1O [Rutin]
Intensity of tyrosinase band (tyrosinase [1]): 150
IC50 [3]: < 500 µg/mL

C[C@H]1[C@H](C)CC[C@]2(C(=O)O)CC[C@]3(C)C(=CC[C@@H]4[C@@]5(C)CC[C@H](O)C(C)(C)[C@@H]5CC[C@]43C)[C@H]12 [Ursolic acid]
Intensity of tyrosinase band (tyrosinase [1]): 180
IC50 [3, 6]: < 500 µg/mL
